This is an account of results in patent US8257965B2, “Arrays of biological membranes and methods and use thereof” (Corning Incorporated, priority 2001, dated 2012).

The target in test [1] is T1, neurotensin receptor subtype 1 (NTR1) (Homo sapiens, UniProt P30989).
T1 construct: purchased Perkin Elmer Life Science (Boston, Mass.)
Briefly: Competition binding of BT-neurotensin to NTR1 receptor arrays on CMT-GAPS slides. The conditions noted are these: BT-NT 2 nM, unlabeled ligand 1 μM.

The target of a further test is β1 (Homo sapiens, UniProt P08588). Briefly: Family-specific adrenergic receptor array, competition with BODIPY-TMR-CGP12177. In kind it is binding. As to the method: FIGS. 9A, 9B and 9C illustrate GPCR theme arrays used to differentiate the selectivity of compounds of interest to receptors relating to a single subfamily. Multiple arrays of β1, β2 and α2A were fabricated on an APTES-modified gold surface. Within each array there were three columns of five replicates, corresponding to β1, β2 and α2A from the left to right column, respectively. The array incubated with 5 nM BT-CGP only was used as positive control (FIG. 9A). […] Three receptors belonging to the same family, adrenergic receptors, were arrayed within a single grid, and replicates of this grid were arrayed on a single slide. The receptors were β1, β2 and α2A, respectively.

Another test addresses T2, α2A (Homo sapiens, UniProt P08913).
T2 sequence (P08913 1-465): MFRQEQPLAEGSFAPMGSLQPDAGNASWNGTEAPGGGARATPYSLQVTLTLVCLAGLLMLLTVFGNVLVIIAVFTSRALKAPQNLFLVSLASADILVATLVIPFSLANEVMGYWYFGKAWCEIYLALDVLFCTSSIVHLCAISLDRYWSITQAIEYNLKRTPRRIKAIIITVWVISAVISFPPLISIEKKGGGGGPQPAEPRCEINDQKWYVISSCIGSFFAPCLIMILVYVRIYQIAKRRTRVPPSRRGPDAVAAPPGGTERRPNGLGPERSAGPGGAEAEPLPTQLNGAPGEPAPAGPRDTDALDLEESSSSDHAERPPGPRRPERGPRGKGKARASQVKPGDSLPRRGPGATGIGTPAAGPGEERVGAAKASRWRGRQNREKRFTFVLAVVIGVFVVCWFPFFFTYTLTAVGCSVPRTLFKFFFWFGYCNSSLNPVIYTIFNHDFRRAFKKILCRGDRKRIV
The following applies: known value; cited from earlier work.

For another test, the target named is Gi2 (Homo sapiens, UniProt P04899). The following applies: unactivated form, reconstituted vesicle systems (McEwen et al.); cited from earlier work.
A further test concerns the target Gi1 (Homo sapiens, UniProt P63096). The following applies: unactivated form, reconstituted vesicle systems (McEwen et al.); cited from earlier work.
A further test concerns the target Go (Homo sapiens, UniProt P09471). The following applies: unactivated form, reconstituted vesicle systems (McEwen et al.); cited from earlier work.
Another test concerns the target Gs (Homo sapiens, UniProt P63092). The conditions noted are these: unactivated form, reconstituted vesicle systems (McEwen et al.); cited from earlier work.

Sequence of β1 (P08588 whole entry): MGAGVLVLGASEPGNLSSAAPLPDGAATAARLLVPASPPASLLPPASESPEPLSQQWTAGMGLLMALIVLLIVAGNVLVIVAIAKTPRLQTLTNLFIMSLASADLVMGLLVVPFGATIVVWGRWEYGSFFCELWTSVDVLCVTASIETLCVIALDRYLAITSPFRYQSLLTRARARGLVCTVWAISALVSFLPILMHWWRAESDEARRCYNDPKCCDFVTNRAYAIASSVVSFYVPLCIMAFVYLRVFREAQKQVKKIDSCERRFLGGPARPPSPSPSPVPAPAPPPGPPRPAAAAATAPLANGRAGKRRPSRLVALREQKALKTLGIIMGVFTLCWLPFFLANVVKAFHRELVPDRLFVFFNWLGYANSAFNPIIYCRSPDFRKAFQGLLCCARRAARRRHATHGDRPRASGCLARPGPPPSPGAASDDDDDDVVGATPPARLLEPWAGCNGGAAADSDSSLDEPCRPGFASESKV
T1 sequence (P30989 whole entry): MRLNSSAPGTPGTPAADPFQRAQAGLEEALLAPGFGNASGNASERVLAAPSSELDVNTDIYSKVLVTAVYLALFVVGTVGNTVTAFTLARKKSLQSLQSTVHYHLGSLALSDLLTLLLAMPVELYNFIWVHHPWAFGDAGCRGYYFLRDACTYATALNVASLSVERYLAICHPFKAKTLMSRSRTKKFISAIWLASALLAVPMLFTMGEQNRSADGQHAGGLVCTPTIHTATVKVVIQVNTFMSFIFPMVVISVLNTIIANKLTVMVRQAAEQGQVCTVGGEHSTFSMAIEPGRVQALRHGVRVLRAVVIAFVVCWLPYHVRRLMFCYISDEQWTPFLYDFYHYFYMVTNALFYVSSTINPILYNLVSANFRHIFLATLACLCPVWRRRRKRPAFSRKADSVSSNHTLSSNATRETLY
Sequence of Go (P09471 whole entry): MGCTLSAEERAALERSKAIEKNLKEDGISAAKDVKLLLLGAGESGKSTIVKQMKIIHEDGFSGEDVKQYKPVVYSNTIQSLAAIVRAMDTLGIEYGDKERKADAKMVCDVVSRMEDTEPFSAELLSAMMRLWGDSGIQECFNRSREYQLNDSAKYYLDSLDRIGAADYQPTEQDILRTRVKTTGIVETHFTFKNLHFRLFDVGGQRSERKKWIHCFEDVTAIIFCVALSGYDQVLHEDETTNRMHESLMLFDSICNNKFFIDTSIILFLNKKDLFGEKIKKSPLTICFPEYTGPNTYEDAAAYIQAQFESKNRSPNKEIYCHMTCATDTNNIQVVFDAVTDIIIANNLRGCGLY
Sequence of Gs (P63092 whole entry): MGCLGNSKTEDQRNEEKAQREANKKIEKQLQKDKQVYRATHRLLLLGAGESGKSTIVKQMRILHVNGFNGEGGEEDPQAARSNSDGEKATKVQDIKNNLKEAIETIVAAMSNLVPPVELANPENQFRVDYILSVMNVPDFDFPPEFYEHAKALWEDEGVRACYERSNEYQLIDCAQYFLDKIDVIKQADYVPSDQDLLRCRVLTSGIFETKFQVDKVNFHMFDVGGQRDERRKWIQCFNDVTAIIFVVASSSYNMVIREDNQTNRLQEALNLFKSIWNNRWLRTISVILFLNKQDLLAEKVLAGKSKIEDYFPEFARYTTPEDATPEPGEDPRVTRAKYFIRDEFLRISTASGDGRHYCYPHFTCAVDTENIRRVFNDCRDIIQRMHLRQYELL
Sequence of Gi2 (P04899 whole entry): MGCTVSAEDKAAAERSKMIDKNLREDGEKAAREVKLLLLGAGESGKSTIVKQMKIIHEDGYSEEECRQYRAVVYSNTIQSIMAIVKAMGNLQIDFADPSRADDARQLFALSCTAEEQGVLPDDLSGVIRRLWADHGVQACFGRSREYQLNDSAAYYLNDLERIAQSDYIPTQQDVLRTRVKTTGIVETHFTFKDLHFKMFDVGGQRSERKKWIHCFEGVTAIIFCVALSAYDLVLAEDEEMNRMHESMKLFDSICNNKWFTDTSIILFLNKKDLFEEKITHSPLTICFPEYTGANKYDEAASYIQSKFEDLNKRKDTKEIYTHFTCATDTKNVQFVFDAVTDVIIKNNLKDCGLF
Sequence of Gi1 (P63096 whole entry): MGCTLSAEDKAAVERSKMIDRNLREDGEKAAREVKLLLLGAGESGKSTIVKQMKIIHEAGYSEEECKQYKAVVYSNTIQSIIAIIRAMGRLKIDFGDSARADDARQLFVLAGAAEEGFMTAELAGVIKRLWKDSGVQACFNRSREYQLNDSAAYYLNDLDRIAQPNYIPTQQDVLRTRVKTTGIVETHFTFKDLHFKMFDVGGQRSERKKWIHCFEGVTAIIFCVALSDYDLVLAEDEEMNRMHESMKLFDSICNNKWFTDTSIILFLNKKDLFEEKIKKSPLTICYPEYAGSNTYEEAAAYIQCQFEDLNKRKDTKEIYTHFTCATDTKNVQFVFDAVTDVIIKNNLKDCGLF

For `CC(C)(C)NCC(O)COc1cccc2[nH]c(=O)[nH]c12` (centres unmarked) [CGP12177], in test [1], the “effect on intensities of NTR1 spots (inhibition of BT-NT binding)” value is on record as “no significant decrease”.

As to `Cc1ccc(OCC(O)C(C)NC(C)C)c2c1CCC2` (centres unmarked) [ICI 118551], the “fluorescence intensity of the β1 receptors” value on β1 (5 nM BODIPY-TMR-CGP12177, 10 nM ICI118551) was “remains almost at the same level”. Moreover, the “fluorescence intensity of β1” value at β1 (5 nM BODIPY-TMR-CGP12177, 500 nM ICI118551) is listed as “dramatically decreases”. Further, the inhibition constant (Ki) on α2A was over 10000 nM.

For the molecule BODIPY-FL-GTPγS, the Kd on Gi2 is 300 nM; at Gi1 it was 150 nM; at Go, 6 nM; at Gs it was 70 nM.

What is called Ki is a measure of affinity in units of concentration, obtained from inhibition or displacement. By Kd is commonly meant a measure of binding affinity in units of concentration.
